Paper PMC11219871, “Epigenetic-based differentiation therapy for Acute Myeloid Leukemia” (Nature Communications, 2024)
Values joined by “and” are separate entries in the source; they are usually repeats but may differ in a detail not shown here. Equal values may be shown once. Read-outs that look alike come from different tables or passages of the source.

Columns and labels:
Type in all cases: cell-based, human
ML-2 [1] = test: Differentiation-apoptosis assay, CD11b / annexin-V / Sytox Green / myeloid markers flow cytometry; set-up: Cell viability: concentration or dose not given beside the values; CD11b levels: unit not given here
Summary of the method: (§1)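 Cells washed in PBS, resuspended at 1 × 10^6 cells/mL in binding buffer and stained with APC-CD11b and FITC annexin-V for 15 min at room temperature in the dark, then read by flow cytometry. Other runs used a CD13/HLA-DR/CD14 antibody panel, 30 min staining, then red-cell lysis and washes.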

MOLM-13 [2] = test: as above; set-up: Cell viability (%): concentration or dose not given beside the values; CD11b levels: unit not given here
Summary of the method: as §1

MV4-11 [3] = test: as above; set-up: Cell viability (%): concentration or dose not given beside the values; CD11b levels: unit not given here
Summary of the method: as §1

MOLM-13 [4] = test: Cell proliferation assay: GI50
Summary of the method: (§2)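 Suspension cells at 1 × 10^6 cells/mL were treated in triplicate, then incubated 1–3 h with MTS reagent (CellTiter 96 AQueous One) for colorimetric viable-cell read-out. After medium-only background subtraction, absorbance was expressed as % of untreated cells, and GI50 was fitted by non-linear regression.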

ML-2 [5] = test: Cell proliferation assay: GI50
Summary of the method: as §2

MV4-11 [6] = test: Cell proliferation assay: GI50
Summary of the method: as §2

HL-60 = test: Cell proliferation assay: GI50
Summary of the method: as §2

[7] = tested on: primary AML patient samples; test: Differentiation assay, CD11b flow cytometry in primary samples; conditions: for CD11b-positive cells (%): daily 48 h
Experimental: Next, the cells were washed twice with phosphate-buffered saline (PBS) and resuspended in 1X Binding Buffer at a concentration of 1 × 10^6 cells/mL. An 8-µL aliquot of APC-CD11b (BD Pharmingen, Franklin Lakes, NJ, USA) and 1 µL of FITC annexin-V (AV) (BD Pharmingen, Franklin Lakes, NJ, USA) antibodies were added and incubated for 15 min at room temperature in the dark. Finally, after the addition of 400 µL of 1X Binding Buffer to each tube, samples were collected on a BD FACSCanto flow cytometer (Becton Dickinson, San Jose, CA, USA) and analyzed using FlowJo software.
Peripheral blood (PB) specimens were obtained from preliminarily diagnosed AML patients who had not received any treatment before specimens were collected. All patients gave informed consent for their participation in this study, which was approved by the Clinical Research Ethics Committee of Clínica Universidad de Navarra. Written informed consent was obtained from each participant. PB was mixed with an ammonium chloride-potassium (ACK) buffer lysis (0.15 mol/L NH4Cl, 10 mmol/L KHCO3, 0.1 mmol/L ethylenediaminetetraacetic acid, pH 7.2) at a 1:2 volume ratio by gentle inversion, incubated for 10 min and centrifuged at 200 g for 10 min. The cell pellet was washed twice with PBS and finally resuspended in EGM2 medium (Cambrex Bioscience, Walkersville, MD). EGM2 contains 2% fetal calf serum, hydrocortisone, heparin, antibiotics, epidermal growth factor, human fibroblast growth factor, insulin-like growth factor, vascular endothelial growth factor, and ascorbic acid. The cells were plated at 1 × 10^6 cells/mL and treated daily with 200 and 500 nM of CM-444 and CM-1758 for 48 h. Next, the differentiation assay was performed as described above.

[8] = ML-2, 48 h, replicates (Fig 4A)
[9] = ML-2, daily treatment, time 0 days, replicates 1-3 (Figure 2B)
[10] = ML-2, daily treatment, time 2 days, replicates 1-3 (Figure 2B)
[11] = ML-2, daily treatment, time 4 days, replicates 1-3 (Figure 2B)
[12] = ML-2, daily treatment, time 6 days, replicates 1-3 (Figure 2B)
[13] = ML-2, daily treatment, time 8 days, replicates 1-3 (Figure 2B)
[14] = MOLM-13, 48 h treatment, replicates 1-3 (Suppl. Fig. 5A)
[15] = MOLM-13, daily treatment, time 0 days
[16] = MOLM-13, daily treatment, time 2 days
[17] = MOLM-13, daily treatment, time 4 days
[18] = MOLM-13, daily treatment, time 6 days
[19] = MOLM-13, daily treatment, time 8 days
[20] = MV4-11, 48 h treatment, replicates 1-3 (Suppl. Fig. 5A)
[21] = MV4-11, daily treatment, time 0 days
[22] = MV4-11, daily treatment, time 2 days
[23] = MV4-11, daily treatment, time 4 days
[24] = MV4-11, daily treatment, time 6 days

## COc1cc2nc(-c3ccc(C)o3)cc(NCC3CCN(c4ncc(C(=O)NO)cn4)CC3)c2cc1OC [CM-444, 2-[4-[[[6,7-dimethoxy-2-(5-methyl-2-furyl)-4-quinolyl]amino]methyl]-1-piperidyl]pyrimidine-5-carbohydroxamic acid]
ML-2 [1]; ML-2, 260 nM CM-444 or 210 nM CM-1758 daily for 4 days, before injection
  percentage of CD11b: > 90%
ML-2 [1]; ML-2, 48 h
  CD11b (%): 80.1%
  CD13 (%): 100%
  CD14 (%): 5.20%
  HLA-DR (%): 35.7%
ML-2 [1]; [8]
  CD11b: 89.5% and 75.9% and 74.5%
  Cell viability: 80.4% and 75.1% and 78.2%
ML-2 [1]; ML-2, after 6–8 days of treatment
  differentiation level (CD11b): ~90%
ML-2 [1]; [9]
  Annexin-V (%): 0% and 1.81% and 2.3%
  CD11b (%): 9.3% and 9.32% and 7.24%
ML-2 [1]; [10]
  Annexin-V (%): 0% and 8.27% and 5.87%
  CD11b (%): 24.52% and 30.8% and 32.5%
ML-2 [1]; [11]
  Annexin-V (%): 7.16% and 8.18% and 7.5%
  CD11b (%): 47.58% and 64.3% and 58.4%
ML-2 [1]; [12]
  Annexin-V (%): 12.1% and 4.47% and 9.8%
  CD11b (%): 89.87% and 81.3% and 87.3%
ML-2 [1]; [13]
  Annexin-V (%): 10.64% and 10.25% and 11.25%
  CD11b (%): 92.1% and 91.7% and 93.4%
ML-2 [1]; ML-2 cell line, replicates 1-3 (Figure 2A)
  CD11b (%): 86.3% and 76.9% and 74.7%
ML-2 [1]; ML-2 treated daily for 48 h, replicates (Fig 6E)
  CD11b levels: 70.9 and 75.6 and 72.7
MOLM-13 [2]; MOLM-13, 48 h
  CD11b (%): 92.8%
  CD13 (%): 49.3%
  CD14 (%): 66.5%
  HLA-DR (%): 35.1%
MOLM-13 [2]; [14]
  CD11b (%): 94.2% and 88.9% and 85.7%
  Cell viability (%): 70.2% and 63.7% and 70.7%
MOLM-13 [2]; MOLM-13, after 6–8 days of treatment
  differentiation level (CD11b): ~90%
MOLM-13 [2]; MOLM-13, daily treatment for 48 h, replicates 1-3 (Suppl. Fig. 9A)
  CD11b levels: 43.6 and 50.7 and 40.2
MOLM-13 [2]; [15]
  Annexin-V (%): 4.46% and 6.55% and 4.89%
  CD11b (%): 6.62% and 4.5% and 6.9%
MOLM-13 [2]; [16]
  Annexin-V (%): 24.6% and 15.6% and 17.4%
  CD11b (%): 63% and 58.9% and 57.2%
MOLM-13 [2]; [17]
  Annexin-V (%): 66.7% and 40.3% and 35.6%
  CD11b (%): 60% and 65.3% and 63.1%
MOLM-13 [2]; [18]
  Annexin-V (%): 72.2% and 50.7% and 45.3%
  CD11b (%): 66.7% and 70.8% and 65.2%
MOLM-13 [2]; [19]
  Annexin-V (%): 68.1% and 55.1% and 49.2%
  CD11b (%): 68.9% and 75.7% and 73.6%
MOLM-13 [2]; MOLM-13 cell line, replicates 1-3 (Figure 2A)
  CD11b (%): 73.8% and 63.3% and 68.4%
MV4-11 [3]; MV4-11, 48 h
  CD11b (%): 58.9%
  CD13 (%): 98.0%
  CD14 (%): 57.6%
  HLA-DR (%): 42.1%
MV4-11 [3]; [20]
  CD11b (%): 53.8% and 54.1% and 56.8%
  Cell viability (%): 72.5% and 67.1% and 68%
MV4-11 [3]; MV4-11, after 6–8 days of treatment
  differentiation level (CD11b): ~90%
MV4-11 [3]; MV4-11, daily treatment for 48 h, replicates 1-3 (Suppl. Fig. 9A)
  CD11b levels: 39.5 and 43.7 and 45.9
MV4-11 [3]; [21]
  Annexin-V (%): 5.32% and 4.14% and 5.2%
  CD11b (%): 11.1% and 6.62% and 5.25%
MV4-11 [3]; [22]
  Annexin-V (%): 28.1% and 26.8% and 25.7%
  CD11b (%): 30.2% and 35.8% and 36.8%
MV4-11 [3]; [23]
  Annexin-V (%): 38.5% and 41.2% and 41.8%
  CD11b (%): 53.4% and 55% and 51.8%
MV4-11 [3]; [24]
  Annexin-V (%): 79.6% and 81.2% and 80.7%
  CD11b (%): 74.9% and 73.2% and 74.5%
MV4-11 [3]; MV4-11 cell line, replicates 1-3 (Figure 2A)
  CD11b (%): 41.7% and 49.8% and 50.4%
MOLM-13 [4]; Homo sapiens, MOLM-13, MOLM-13, replicates 1-3
  GI50: 1370 nM
MOLM-13 [4]; MOLM-13, replicates 1-3
  GI50: 1120 nM and 883 nM
ML-2 [5]; Homo sapiens, ML-2, ML-2, replicates 1-3
  GI50: 988 nM
ML-2 [5]; ML-2, replicates 1-3
  GI50: 1150 nM and 956 nM
MV4-11 [6]; Homo sapiens, MV4-11, 48 h
  GI50: 621 nM
MV4-11 [6]; Homo sapiens, MV4-11, MV4-11, replicates 1-3
  GI50: 458 nM
MV4-11 [6]; MV4-11, replicates 1-3
  GI50: 765 nM and 641 nM
HL-60; HL-60, replicates 1-3, read-out: GI50
  GI50: 987 nM and 1020 nM
HL-60; Homo sapiens, HL-60, 48 h, 48 h, read-out: HL-60 GI50
  GI50: 1090 nM
HL-60; Homo sapiens, HL-60, HL-60, replicates 1-3, read-out: GI50
  GI50: 1260 nM
[7]; primary AML patient sample 1 (Figure 2C)
  CD11b (%): 46.62%
[7]; primary AML patient sample 2 (Figure 2C)
  CD11b (%): 31.74%
[7]; primary AML patient sample 3 (Figure 2C)
  CD11b (%): 20.47%
[7]; primary AML patient sample 4 (Figure 2C)
  CD11b (%): 39.54%
[7]; primary AML patient sample 5 (Figure 2C)
  CD11b (%): 32.14%
[7]; primary AML patient sample 6 (Figure 2C)
  CD11b (%): 38.57%
[7]; primary AML patient sample 7 (Figure 2C)
  CD11b (%): 49.19%
[7]; primary AML patient sample 8 (Figure 2C)
  CD11b (%): 23.69%
[7]; sample AML-1, 200 nM
  CD11b-positive cells (%): 35.2%
[7]; sample AML-1, 500 nM
  CD11b-positive cells (%): 46.6%
[7]; sample AML-2, 200 nM
  CD11b-positive cells (%): 16.8%
[7]; sample AML-2, 500 nM
  CD11b-positive cells (%): 31.7%
[7]; sample AML-3, 200 nM
  CD11b-positive cells (%): 12.3%
[7]; sample AML-3, 500 nM
  CD11b-positive cells (%): 20.5%
[7]; sample AML-4, 200 nM
  CD11b-positive cells (%): 20.8%
[7]; sample AML-4, 500 nM
  CD11b-positive cells (%): 39.5%
[7]; sample AML-5, 200 nM
  CD11b-positive cells (%): 20.2%
[7]; sample AML-5, 500 nM
  CD11b-positive cells (%): 32.1%
[7]; sample AML-6, 200 nM
  CD11b-positive cells (%): 29.7%
[7]; sample AML-6, 500 nM
  CD11b-positive cells (%): 38.6%
[7]; sample AML-7, 200 nM
  CD11b-positive cells (%): 32.9%
[7]; sample AML-7, 500 nM
  CD11b-positive cells (%): 49.2%
[7]; sample AML-8, 200 nM
  CD11b-positive cells (%): 15.3%
[7]; sample AML-8, 500 nM
  CD11b-positive cells (%): 23.7%
